Test results as given in patent publication US9309263B2, “Fused multi-cyclic sulfone compounds as inhibitors of beta-secretase and methods of use thereof” (AMGEN INC., priority 2013, dated 2016).
Where two headings read alike, the source gives them in different places.

Experiments:
[1] = tested on: Aβ 40 in conditioned medium of cells stably expressing Amyloid Precursor Protein (APP); experiment: In vitro BACE cell-based assay (Aβ 40 sandwich ELISA); details: Homo sapiens, HEK293
How it was run: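 Aβ40 in conditioned medium measured by pAb40/biotin-6E10 sandwich ELISA with time-resolved europium fluorescence, after 24 h exposure of stable APP cells to compounds (10-point series starting 100 μM or 10 μM; 0.1% DMSO). IC50 fitted from percent of control against concentration.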

Abeta 40 = experiment: In vivo inhibition of beta-secretase: Abeta 40 reduction in CSF and brain of the rat; details: 10 mpk (unless otherwise noted), after 4 hrs
From the text: In Vivo Inhibition of Beta-Secretase
Several animal models, including mouse, rat, dog, and monkey, may be used to screen for inhibition of beta-secretase activity in vivo following administration of a test compound sample. Animals used in this invention can be wild type, transgenic, or gene knockout animals. For example, the Tg2576 mouse model, prepared and conducted as described in Hsiao et al., 1996, Science 274, 99-102, and other non-transgenic or gene knockout animals are useful to analyze in vivo inhibition of Amyloid beta peptide (Abeta) production in the presence of inhibitory test compounds. Generally, 2 to 18 month old Tg2576 mice, gene knockout mice or non-transgenic animals are administered test compounds formulated in vehicles, such as cyclodextran, phosphate buffers, hydroxypropyl methylcellulose or other suitable vehicles. One to twenty-four hours following the administration of compound, animals are sacrificed, and brains as well as cerebrospinal fluid (CSF) and plasma are removed for analysis of A-beta levels and drug or test compound concentrations (Dovey et al., 2001, Journal of Neurochemistry, 76, 173-181) Beginning at time 0, animals are administered by oral gavage, or other means of delivery such as intravenous injection, an inhibitory test compound of up to 100 mg/kg in a standard, conventional formulation, such as 2% hydroxypropyl methylcellulose, 1% Tween80. A separate group of animals receive 2% hydroxypropyl methylcellulose, 1% Tween80 alone, containing no test compound, and serve as a vehicle-control group. At the end of the test period, animals are sacrificed and brain tissues, plasma or cerebrospinal fluid are collected. Brains are either homogenized in 10 volumes (w/v) of 0.2% diethylamine (DEA) in 50 mM NaCl (Best et al., 2005, Journal of Pharmacology and Experimental Therapeutics, 313, 902-908), or in 10 volumes of 0.5% TritonX-100 in Tris-buffered saline (pH at about 7.6). Homogenates are centrifuged at 355,000 g, 4° C. for 30 minutes. CSF or brain supernatants are then analyzed for the presence of A-beta peptide by specific sandwich ELISA assays based on ECL (Electrochemiluminescence) technology. For example, rat Abeta40 is measured using biotinylated-4G8 (Signet) as a capture antibody and Fab40 (an in-house antibody specific to the C-terminal of Abeta40) as a detection antibody. For example, 4 hours after administration of 30 mg/kg oral dose of the test compound in 2% hydroxypropyl methylcellulose, 1% Tween80 (pH2.2) to 200 g male Sprague Dawley rats, amyloid beta peptide levels are measured for reduction by X % and Y % in cerebrospinal fluid and brain, respectively, when compared to the levels measured in the vehicle-treated or control […].
Actual vehicles used: Oral: 2% HPMC, 1% Tween80, pH 2.2
• IV: 5% EtOH, 45% Propylene Glycol in 5% Dextrose
The compounds of the invention may be shown to reduce the formation and/or deposition of amyloid beta peptide in the cerebrospinal fluid (CSF) as well as in the brain of a mouse or rat at either 3 mpk, 10 mpk or 30 mpk (mpk=mg compound per kg weight of the animal) dosing concentrations after 4 hrs.

Cathepsin D (Cat D) = Cathepsin D (Cat D) (Homo sapiens, UniProt P07339); experiment: In vitro enzymatic Cathepsin D (Cat D) FRET assay; type: biochemical
Sequence of Cathepsin D (Cat D) (P07339 65-412, species assumed): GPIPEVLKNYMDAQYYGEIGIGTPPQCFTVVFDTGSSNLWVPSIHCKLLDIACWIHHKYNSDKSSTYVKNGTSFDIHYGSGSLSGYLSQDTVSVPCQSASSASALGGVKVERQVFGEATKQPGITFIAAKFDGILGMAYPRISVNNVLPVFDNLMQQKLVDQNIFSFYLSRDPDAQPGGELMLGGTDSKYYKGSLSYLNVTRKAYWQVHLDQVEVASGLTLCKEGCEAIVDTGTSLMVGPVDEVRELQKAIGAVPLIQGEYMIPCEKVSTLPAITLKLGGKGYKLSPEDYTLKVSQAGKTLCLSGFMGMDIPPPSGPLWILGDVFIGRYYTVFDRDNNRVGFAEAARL
How it was run: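 FRET peptide substrate (20 nM) is cleaved by CHO-derived recombinant enzyme (9 nM) for 1 h after a 1 h inhibitor pre-incubation, at pH 3.5 in citrate buffer with 5 mM CHAPS and 10% DMSO. Tris addition ends the reaction; fluorescence measured at 500 nm excitation, 580 nm emission.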

[2] = target: Beta Secretase enzyme (BACE) (Homo sapiens, UniProt P56817); experiment: In vitro enzymatic BACE FRET assay; type: biochemical; details: read-out: BACE1 FRET assay IC50
Sequence of Beta Secretase enzyme (BACE) (P56817 46-501): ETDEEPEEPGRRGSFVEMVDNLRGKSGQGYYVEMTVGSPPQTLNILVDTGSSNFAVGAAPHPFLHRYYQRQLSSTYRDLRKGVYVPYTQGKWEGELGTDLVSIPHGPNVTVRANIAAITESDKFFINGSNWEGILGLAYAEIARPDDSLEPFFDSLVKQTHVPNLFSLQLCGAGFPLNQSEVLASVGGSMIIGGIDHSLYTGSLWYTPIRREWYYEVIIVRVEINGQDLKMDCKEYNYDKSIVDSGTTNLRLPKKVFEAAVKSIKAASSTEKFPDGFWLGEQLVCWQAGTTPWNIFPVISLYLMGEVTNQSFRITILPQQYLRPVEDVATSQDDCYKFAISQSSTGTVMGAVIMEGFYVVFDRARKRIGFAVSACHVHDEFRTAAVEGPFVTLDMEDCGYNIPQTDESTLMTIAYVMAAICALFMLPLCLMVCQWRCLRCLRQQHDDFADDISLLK
How it was run: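 Cleavage of a quenched 50 nM FRET peptide substrate, read as fluorescence (excitation 488 nm, […]) after 1 h and Tris quench to neutrality. Buffer: 0.05 M acetate pH 4.2 with 10% DMSO and 100 uM genapol. Inhibitor dilutions were pre-incubated 1 h with 0.2 nM enzyme.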

[3] = average IC50, HEK cell assay, Aβ 40 readout
[4] = Abeta 40 in CSF of the rat, read-out: % reduction of rat CSF levels at 10 pmk
[5] = Abeta 40 in brain of the rat, read-out: % reduction of rat brain levels at 10 mpk
[6] = Cathepsin D FRET assay, read-out: CatD IC50
[7] = average IC50, in vitro enzymatic BACE FRET assay
[8] = text summary referring to data in Table 2

SMILES | IC50 [1, 3] | inhibition in vivo at 10 mg/kg (Abeta 40; [4]) | inhibition in vivo at 10 mg/kg (Abeta 40; [5]) | IC50 (Cathepsin D (Cat D); [6]) | IC50 [2, 7] | IC50 ([1]; HEK cell, average IC50) | IC50 (Cathepsin D (Cat D); read-out: CatD IC50) | IC50 ([2]; average IC50) | IC50 (Cathepsin D (Cat D); [8])
C[C@H]1C[C@@H]2[C@](C)(N=C(N)C(C)(C)S2(=O)=O)c2cc(Nc3ncnc4cc(C(F)(F)F)cnc34)ccc2O1 [Example 133, (4aR,6S,11bR)-3,3,6,11b-tetramethyl-N^~10^~-(7-(trifluoromethyl)pyrido[3,2-d]pyrimidin-4-yl)-4a,5,6,11b-tetrahydro-3H-[1]benzoxepino[4,5-b][1,4]thiazine-2,10-diamine 4,4-dioxide] | 0.005 µM | 63% | 51% | 427 µM | 0.01 µM |  |  |  | 
CC1(C)C[C@@H]2[C@](C)(N=C(N)C(C)(C)S2(=O)=O)c2cc(NC(=O)c3ncc(C(F)(F)F)cc3Cl)ccc2O1 [Example 127, N-((4aR,11bR)-2-amino-3,3,6,6,11b-pentamethyl-4,4-dioxido-4a,5,6,11b-tetrahydro-3H-[1]benzoxepino[4,5-b][1,4]thiazin-10-yl)-3-chloro-5-(trifluoromethyl)-2-pyridinecarboxamide] | 0.007 µM | 37% | 15% | 1020 µM | 0.019 µM |  |  |  | 
C#CCOc1cnc2c(Nc3ccc4c(c3)[C@@]3(C)N=C(N)C(C)(C)S(=O)(=O)[C@@H]3C[C@H](C)O4)nccc2n1 [Example 140, (4aR,6S,11bR)-3,3,6,11b-tetramethyl-N^~10^~-(2-(2-propyn-1-yloxy)pyrido[3,4-b]pyrazin-5-yl)-4a,5,6,11b-tetrahydro-3H-[1]benzoxepino[4,5-b][1,4]thiazine-2,10-diamine 4,4-dioxide] | 0.002 µM | 71% | 72% | 610 µM | 0.002 µM |  |  |  | 
C[C@H]1C[C@@H]2[C@](C)(N=C(N)C(C)(C)S2(=O)=O)c2cc(NC(=O)c3ccc(Cl)cn3)ccc2O1 [Example 85, N-((4aR,6S,11bR)-2-amino-3,3,6,11b-tetramethyl-4,4-dioxido-4a,5,6,11b-tetrahydro-3H-[1]benzoxepino[4,5-b][1,4]thiazin-10-yl)-5-chloro-2-pyridinecarboxamide] | 0.003 µM | 79% | 78% | 607 µM | 0.004 µM |  |  |  | 
Cc1cc(C(F)(F)F)cnc1C(=O)Nc1ccc2c(c1)[C@@]1(CF)N=C(N)C(C)(C)S(=O)(=O)[C@@H]1C[C@H](C)O2 [Example 104, N-((4aR,6S,11bS)-2-amino-11b-(fluoromethyl)-3,3,6-trimethyl-4,4-dioxido-4a,5,6,11b-tetrahydro-3H-[1]benzoxepino[4,5-b][1,4]thiazin-10-yl)-3-methyl-5-(trifluoromethyl)-2-pyridinecarboxamide] | 0.037 µM | 36% | 11% | > 400 µM | 0.014 µM |  |  |  | 
COc1cnc(C(=O)Nc2ccc3c(c2)[C@@]2(C)N=C(N)C(C)(C)S(=O)(=O)[C@@H]2C[C@H](C)O3)cn1 [Example 55, N-((4aR,6S,11bR)-2-amino-3,3,6,11b-tetramethyl-4,4-dioxido-4a,5,6,11b-tetrahydro-3H-[1]benzoxepino[4,5-b][1,4]thiazin-10-yl)-5-methoxy-2-pyrazinecarboxamide] |  | 74% | 70% |  |  | 0.004 µM | 650 µM | 0.009 µM | 
C[C@H]1C[C@@H]2[C@](C)(N=C(N)C(C)(C)S2(=O)=O)c2cc(Nc3nccc4cc(C#N)cnc34)ccc2O1 [Example 56, 8-(((4aR,6S,11bR)-2-amino-3,3,6,11b-tetramethyl-4,4-dioxido-4a,5,6,11b-tetrahydro-3H-[1]benzoxepino[4,5-b][1,4]thiazin-10-yl)amino)-1,7-naphthyridine-3-carbonitrile] |  | 70% | 61% |  |  | 0.001 µM | 544 µM | 0.002 µM | 
C[C@H]1C[C@@H]2[C@](C)(N=C(N)C(C)(C)S2(=O)=O)c2cc(NC(=O)c3ncc(Cl)cc3Cl)ccc2O1 [Example 129, N-((4aR,6S,11bR)-2-amino-3,3,6,11b-tetramethyl-4,4-dioxido-4a,5,6,11b-tetrahydro-3H-[1]benzoxepino[4,5-b][1,4]thiazin-10-yl)-3,5-dichloro-2-pyridinecarboxamide] | 0.002 µM | 21% | 18% | 567 µM | 0.003 µM |  |  |  | 
C[C@H]1C[C@@H]2[C@](C)(N=C(N)C(C)(C)S2(=O)=O)c2cc(NC(=O)c3ccc(C#N)cn3)ccc2O1 [Example 86, N-((4aR,6S,11bR)-2-amino-3,3,6,11b-tetramethyl-4,4-dioxido-4a,5,6,11b-tetrahydro-3H-[1]benzoxepino[4,5-b][1,4]thiazin-10-yl)-5-cyano-2-pyridinecarboxamide] | 0.002 µM | 79% | 79% | 1140 µM | 0.003 µM |  |  |  | > 1200 µM
CC1(C)C[C@@H]2[C@](C)(N=C(N)C(C)(C)S2(=O)=O)c2cc(Nc3ncnc4cc(C(F)(F)F)cnc34)ccc2O1 [Example 106, (4aR,11bR)-3,3,6,6,11b-pentamethyl-N^~10^~-(7-(trifluoromethyl)pyrido[3,2-d]pyrimidin-4-yl)-4a,5,6,11b-tetrahydro-3H-[1]benzoxepino[4,5-b][1,4]thiazine-2,10-diamine 4,4-dioxide] | 0.009 µM | 36% | 36% | 505 µM | 0.017 µM |  |  |  | 
Cc1cc(C(F)(F)F)cnc1C(=O)Nc1ccc2c(c1)[C@@]1(C)N=C(N)C(C)(C)S(=O)(=O)[C@@H]1C[C@H](C)O2 [Example 54, N-((4aR,6S,11bR)-2-amino-3,3,6,11b-tetramethyl-4,4-dioxido-4a,5,6,11b-tetrahydro-3H-[1]benzoxepino[4,5-b][1,4]thiazin-10-yl)-3-methyl-5-(trifluoromethyl)-2-pyridinecarboxamide] |  | 76% | 63% |  |  | 0.001 µM | 1620 µM | 0.006 µM | > 1200 µM
C[C@H]1C[C@@H]2[C@](C)(N=C(N)C(C)(C)S2(=O)=O)c2cc(NC(=O)c3ccc(C(F)(F)F)cn3)ccc2O1 [Example 84, N-((4aR,6S,11bR)-2-amino-3,3,6,11b-tetramethyl-4,4-dioxido-4a,5,6,11b-tetrahydro-3H-[1]benzoxepino[4,5-b][1,4]thiazin-10-yl)-5-(trifluoromethyl)-2-pyridinecarboxamide] | 0.004 µM | 70% | 68% | 2760 µM | 0.012 µM |  |  |  | > 1200 µM
